pIC50: −log10 of the molar value.
Each molecule was assayed against T1, Glutamate receptor ionotropic, NMDA 1 (Rattus norvegicus, UniProt P35439) (assay: Inhibition of [3H]- glycine binding to NMDA receptor from rat cortical membranes.).
Assay type: cell membranes, Membrane

pIC50 | SMILES
7.47 | Cc1ccc(CC(=O)N[C@H]2C[C@H](C(=O)O)Nc3cc(Cl)cc(Cl)c32)cc1
6.29 | O=C(O)[C@H]1C[C@H](N2Cc3ccccc3NC2=O)c2c(Cl)cc(Cl)cc2N1
7.12 | O=C(CCc1ccccc1)N[C@H]1C[C@H](C(=O)O)Nc2cc(Cl)cc(Cl)c21
5.19 | O=C(O)[C@H]1CCc2c(Cl)cc(Cl)cc2N1
7.05 | O=C(O)[C@H]1C[C@H](NC(=S)Nc2ccccc2)c2c(Cl)cc(Cl)cc2N1
6.82 | O=C(N[C@H]1C[C@H](C(=O)O)Nc2cc(Cl)cc(Cl)c21)c1ccco1
7.85 | O=C(Cc1ccccc1)N[C@H]1C[C@H](C(=O)O)Nc2cc(Cl)cc(Cl)c21 (stereo in doubt; 14)
7.52 | O=C(Cc1ccsc1)N[C@H]1C[C@H](C(=O)O)Nc2cc(Cl)cc(Cl)c21
7.38 | O=C(Cc1ccccc1)N[C@H]1C[C@H](C(=O)O)Nc2cc(I)cc(Cl)c21
6.66 | O=C(O)[C@H]1C[C@H](NC(=O)N2CCc3ccccc32)c2c(Cl)cc(Cl)cc2N1
7.72 | O=C(O)[C@H]1C[C@H](NC(=O)N(c2ccccc2)c2ccccc2)c2c(Cl)cc(Cl)cc2N1
6.96 | O=C(CC1CCCCC1)N[C@H]1C[C@H](C(=O)O)Nc2cc(Cl)cc(Cl)c21
5.72 | O=C(O)[C@H]1C[C@H](N2C(=O)c3ccccc3C2=O)c2c(Cl)cc(Cl)cc2N1
7.52 | O=C(C[C@H]1C[C@H](C(=O)O)Nc2cc(Cl)cc(Cl)c21)Nc1ccccc1
5.98 | N[C@@H](Cc1ccccc1)C(=O)N[C@H]1C[C@H](C(=O)O)Nc2cc(Cl)cc(Cl)c21
7.96 | O=C(Cc1ccccc1)N[C@H]1C[C@H](C(=O)O)Nc2cc(Cl)cc(Cl)c21 (stereo in doubt; 15)
7.17 | Cc1cc(C)c2c(c1)N[C@@H](C(=O)O)C[C@@H]2NC(=O)Cc1ccccc1
6.20 | O=C(N[C@H]1C[C@H](C(=O)O)Nc2cc(Cl)cc(Cl)c21)c1ccncc1
8.22 | O=C(Nc1ccccc1)N[C@H]1C[C@H](C(=O)O)Nc2cc(Cl)cc(I)c21
7.52 | O=C(NCc1ccccc1)N[C@H]1C[C@H](C(=O)O)Nc2cc(Cl)cc(Cl)c21

pIC50 | SMILES
8.22 | O=C(O)[C@H]1C[C@H](N2CCN(c3ccccc3)C2=O)c2c(Cl)cc(Cl)cc2N1
7.57 | O=C(O)[C@H]1C[C@H](N2Cc3ccccc3C2=O)c2c(Cl)cc(Cl)cc2N1
7.60 | O=C(N[C@H]1C[C@H](C(=O)O)Nc2cc(Cl)cc(Cl)c21)C1c2ccccc2-c2ccccc21
4.95 | N[C@H]1C[C@H](C(=O)O)Nc2cc(Cl)cc(Cl)c21
4.97 | O=C(O)[C@H]1C[C@H](NCc2ccccc2)c2c(Cl)cc(Cl)cc2N1
6.05 | CC(=O)N[C@H]1C[C@H](C(=O)O)Nc2cc(Cl)cc(Cl)c21
< 3.00 | N[C@H](Cc1ccccc1)C(=O)N[C@@H]1C[C@@H](C(=O)O)Nc2cc(Cl)cc(Cl)c21
6.03 | CC(C)(C)OC(=O)N[C@H]1C[C@H](C(=O)O)Nc2cc(Cl)cc(Cl)c21
5.23 | O=C(Cc1ccccc1)N[C@H]1C[C@H](C(=O)O)Nc2cc(Cl)cc(Cl)c21 (stereo in doubt; 16)
6.43 | CCCC(=O)N[C@H]1C[C@H](C(=O)O)Nc2cc(Cl)cc(Cl)c21
8.30 | Cc1ccc(NC(=O)N[C@H]2C[C@H](C(=O)O)Nc3cc(Cl)cc(Cl)c32)cc1
7.34 | O=C(O)[C@H]1C[C@H](N2CCCC2=O)c2c(Cl)cc(Cl)cc2N1
4.94 | CC(C)(C)OC(=O)N[C@@H]1C[C@H](C(=O)O)Nc2cc(Cl)cc(Cl)c21
6.77 | O=C(N[C@H]1C[C@H](C(=O)O)Nc2cc(Cl)cc(Cl)c21)C1CCCCC1
6.77 | O=C(CCCc1ccccc1)N[C@H]1C[C@H](C(=O)O)Nc2cc(Cl)cc(Cl)c21
6.38 | O=C(CN[C@H]1C[C@H](C(=O)O)Nc2cc(Cl)cc(Cl)c21)Nc1ccccc1
7.55 | O=C(NC1CCCCC1)N[C@H]1C[C@H](C(=O)O)Nc2cc(Cl)cc(Cl)c21
6.24 | N#CN/C(=N\[C@H]1C[C@H](C(=O)O)Nc2cc(Cl)cc(Cl)c21)Nc1ccccc1
7.52 | O=C(Cc1ccc(O)cc1)N[C@H]1C[C@H](C(=O)O)Nc2cc(Cl)cc(Cl)c21
7.35 | CN(C(=O)N[C@H]1C[C@H](C(=O)O)Nc2cc(Cl)cc(Cl)c21)c1ccccc1

pIC50 | SMILES
5.08 | O=C(N[C@@H]1C[C@H](C(=O)O)Nc2cc(Cl)cc(Cl)c21)c1ccccc1
4.85 | N[C@@H]1C[C@H](C(=O)O)Nc2cc(Cl)cc(Cl)c21
5.28 | O=C(O)[C@H]1C[C@H](NS(=O)(=O)c2ccccc2)c2c(Cl)cc(Cl)cc2N1
7.41 | COc1ccc(CC(=O)N[C@H]2C[C@H](C(=O)O)Nc3cc(Cl)cc(Cl)c32)cc1
7.00 | O=C(N[C@H]1C[C@H](C(=O)O)Nc2cc(Cl)cc(Cl)c21)c1ccccc1
7.74 | Cc1cccc(NC(=O)N[C@H]2C[C@H](C(=O)O)Nc3cc(Cl)cc(Cl)c32)c1
< 4.00 | N[C@@H](Cc1ccccc1)C(=O)N[C@@H]1C[C@@H](C(=O)O)Nc2cc(Cl)cc(Cl)c21
7.28 | O=C(Cc1ccc(Cl)cc1)N[C@H]1C[C@H](C(=O)O)Nc2cc(Cl)cc(Cl)c21
7.74 | Nc1ccc(CC(=O)N[C@H]2C[C@H](C(=O)O)Nc3cc(Cl)cc(Cl)c32)cc1
7.49 | O=C(Cc1cccs1)N[C@H]1C[C@H](C(=O)O)Nc2cc(Cl)cc(Cl)c21
5.77 | O=C(NCc1ccccc1)[C@H]1C[C@H](C(=O)O)Nc2cc(Cl)cc(Cl)c21
7.21 | O=C(N[C@H]1C[C@H](C(=O)O)Nc2cc(Cl)cc(Cl)c21)C(c1ccccc1)c1ccccc1
8.00 | O=C(Cc1ccccc1)N[C@H]1C[C@H](C(=O)O)Nc2cc(Cl)cc(I)c21
8.14 | Cc1ccccc1NC(=O)N[C@H]1C[C@H](C(=O)O)Nc2cc(Cl)cc(Cl)c21
7.14 | O=C(O)[C@H]1C[C@H](N2Cc3ccccc3CC2=O)c2c(Cl)cc(Cl)cc2N1
8.13 | O=C(Nc1ccccc1)N[C@H]1C[C@H](C(=O)O)Nc2cc(Cl)cc(Cl)c21
7.10 | O=C(N[C@H]1C[C@H](C(=O)O)Nc2cc(Cl)cc(Cl)c21)OCc1ccccc1
5.15 | N[C@H](Cc1ccccc1)C(=O)N[C@H]1C[C@H](C(=O)O)Nc2cc(Cl)cc(Cl)c21

These molecules were tested against T1, Glutamate receptor ionotropic, NMDA 1 (assay: Inhibition of [3H]- glycine binding to N-methyl-D-aspartate glutamate receptor from rat cortical membranes).
Assay type: cell membranes, Membrane

pIC50 | SMILES
7.96 | O=C(Nc1cccc2ccccc12)N[C@H]1C[C@H](C(=O)O)Nc2cc(Cl)cc(Cl)c21

— ChEMBL document CHEMBL1126053, “4-Amido-2-carboxytetrahydroquinolines. Structure-activity relationships for antagonism at the glycine site of the NMDA receptor” (J Med Chem, 1992)
